ChEMBL document CHEMBL1141353, “Three biscembranoids and their monomeric counterpart cembranoid, a biogenetic Diels-Alder precursor, from the soft coral Sarcophyton elegans” (J Nat Prod, 2007)
The source made the active and inactive calls. No cut-off for these calls is given here.

How the values were obtained:
[1] = system: Escherichia coli; assay: Antibacterial activity against Escherichia coli at 1.5 ug/ml; format: functional, organism-based
[2] = Toxicity in brine shrimp assessed as survival rate after 24 hrs; format: organism-based; conditions: artemia salina, in vivo

Compound	Activity [1]	LC50 at 24 h [2] [µM]
COC(=O)[C@]12CC(=O)[C@H](C(C)C)CC(=O)[C@H](C)CCC[C@H](C)CC(=O)[C@H]1CC(C)=C1C[C@H](O)[C@@]3(C)O[C@@H](CC/C(C)=C/[C@@H]12)[C@@]1(C)CC[C@@H]3O1	Active	–
COC(=O)[C@]12CC(=O)[C@H](C(C)C)CC(=O)[C@H](C)CCC[C@H](C)CC(=O)[C@H]1CC(C)=C1C[C@H](O)[C@]3(C)O[C@@H]3CC[C@]3(C)O[C@@H]3CC/C(C)=C/[C@@H]12 [DIEPOXYNYALOLIDE]	–	1.5
COC(=O)/C1=C/C(=O)C[C@@H](C)CCC[C@@H](C)C(=O)C[C@@H](C(C)C)C(=O)C1 [METHYL TETRAHYDROSARCOATE]	–	1.5
